# Like-named read-outs stand apart in the source and are kept apart here.
# Experiments:
# [1] = target: human plasma Vanin-1 (Homo sapiens (Human), UniProt O95497); assay: Human plasma Vanin-1 enzyme activity inhibition assay; type: biochemical; details: 100-fold diluted human plasma, substrate 25 μM, reading at 30th minute; read-out: hPlasma IC50
# [2] = target: CYP 1A2 (Homo sapiens (Human), UniProt P05177); assay: CYP enzyme inhibitory activity IC50 assay (cocktail method), 1A2; type: in vitro ADME; details: microsomes 0.1 mg/mL, probe Phenacetin
# Text: (§1) […]. […] […].
# [3] = target: CYP 2C9 (Homo sapiens (Human), UniProt P11712); assay: CYP enzyme inhibitory activity IC50 assay (cocktail method), 2C9; type: in vitro ADME; details: microsomes 0.1 mg/mL, probe Diclofenac
# Text: as §1
# [4] = target: CYP 2C19 (Homo sapiens (Human), UniProt P33261); assay: CYP enzyme inhibitory activity IC50 assay (cocktail method), 2C19; type: in vitro ADME; details: microsomes 0.1 mg/mL, probe Mephenytoin
# Text: as §1
# [5] = target: CYP 2D6 (Homo sapiens (Human), UniProt P10635); assay: CYP enzyme inhibitory activity IC50 assay (cocktail method), 2D6; type: in vitro ADME; details: microsomes 0.1 mg/mL, probe Dextromethorphan
# Text: as §1
# [6] = In vitro liver microsome stability assay, human; type: in vitro ADME; details: liver microsomes, read-out: T1/2 Human
# Procedure: (§2) PBS Buffer was 50 mM K2HPO4 buffer.
# [7] = In vitro liver microsome stability assay, mouse; type: in vitro ADME; details: liver microsomes, read-out: T1/2 Mouse
# Procedure: as §2
# [8] = In vitro liver microsome stability assay, rat; type: in vitro ADME; details: liver microsomes, read-out: T1/2 Rat
# Procedure: as §2
# [9] = In vivo pharmacokinetic evaluation in mice; design: clearance: unit not given here; details: for AUC(0-t): read-out: Area under the curve AUC0-7 h; for half-life: read-out: Half-life T1/2 (converted); for Cmax: read-out: Peak concentration Cmax
# Text: The vehicle used in the experiment was: DMSO: Solutol: PBS=5%:25%:70% (v/v/v). Preparation method: The required compound was weighed accurately, added with a certain volume of DMSO in a certain proportion, vortex-mixed until completely dissolved, then added successively with Solutol and PBS according to the above proportion, and mixed well. The vehicles used in the intravenous (iv) administration group and oral (po) administration group were the same vehicles in the experiment. The intravenous dose was 2 mpk and the oral dose was 5 mpk. Experimental blood collection time points: IV group: 0.083, 0.25, 0.5, 1, 2, 4, 7, 24 h. PO group: 200 μL of whole blood was collected from jugular vein at each time point of 0.25, 0.5, 1, 2, 4, 7 and 24 h, anticoagulated with EDTA-K2, and immediately centrifuged at 4000 rpm for 5 minutes at 4° C. The supernatant was taken and the samples were frozen and stored in a refrigerator at −80° C. Processing of plasma samples: the sample was precipitated with ACN/MeOH (1:1, v/v) precipitant containing internal standard, then centrifuged at 14000 rpm for 5 minutes. The supernatant was taken into LC-MS/MS (AB Triple Quard 5500) for analysis to obtain plasma concentrations, and parameters were calculated by the non-compartmental model of Winnolin 8.1 version.
# [10] = test system: CYP enzymes; assay: CYP enzyme inhibition, overall statement on tested CYP enzymes; type: in vitro ADME; details: 1A2, 2C9, 2C19, 2D6, 3A4; result in words
# Text: as §1
# [11] = In vitro liver microsome stability, overall statement; type: in vitro ADME; details: human, mouse, rat liver microsomes; result in words
# Procedure: as §2
# [12] = target: CYP3A4 (Homo sapiens, UniProt P08684); assay: in vitro; details: microsomes
# [13] = mouse, plasma, 2 mg/kg, intravenous injection, 2 mpk
# [14] = mouse, plasma, po, 5 mg/kg, intragastric administration, 5 mpk
# human plasma Vanin-1, sequence (O95497 22-513): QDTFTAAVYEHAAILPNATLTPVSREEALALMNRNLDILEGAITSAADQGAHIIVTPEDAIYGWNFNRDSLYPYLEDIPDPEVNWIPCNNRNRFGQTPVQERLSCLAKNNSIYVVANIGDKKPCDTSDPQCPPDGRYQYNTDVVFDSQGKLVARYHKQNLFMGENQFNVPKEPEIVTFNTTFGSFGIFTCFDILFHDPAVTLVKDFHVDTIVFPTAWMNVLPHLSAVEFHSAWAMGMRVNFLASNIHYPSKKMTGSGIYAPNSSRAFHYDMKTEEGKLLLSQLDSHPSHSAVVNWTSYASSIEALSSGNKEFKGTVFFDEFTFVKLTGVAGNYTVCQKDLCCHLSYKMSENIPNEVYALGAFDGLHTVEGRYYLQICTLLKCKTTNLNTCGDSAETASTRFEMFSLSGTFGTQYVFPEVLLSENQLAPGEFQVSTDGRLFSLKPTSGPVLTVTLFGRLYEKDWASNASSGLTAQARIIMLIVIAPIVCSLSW
# CYP 2C19, sequence (P33261 whole entry): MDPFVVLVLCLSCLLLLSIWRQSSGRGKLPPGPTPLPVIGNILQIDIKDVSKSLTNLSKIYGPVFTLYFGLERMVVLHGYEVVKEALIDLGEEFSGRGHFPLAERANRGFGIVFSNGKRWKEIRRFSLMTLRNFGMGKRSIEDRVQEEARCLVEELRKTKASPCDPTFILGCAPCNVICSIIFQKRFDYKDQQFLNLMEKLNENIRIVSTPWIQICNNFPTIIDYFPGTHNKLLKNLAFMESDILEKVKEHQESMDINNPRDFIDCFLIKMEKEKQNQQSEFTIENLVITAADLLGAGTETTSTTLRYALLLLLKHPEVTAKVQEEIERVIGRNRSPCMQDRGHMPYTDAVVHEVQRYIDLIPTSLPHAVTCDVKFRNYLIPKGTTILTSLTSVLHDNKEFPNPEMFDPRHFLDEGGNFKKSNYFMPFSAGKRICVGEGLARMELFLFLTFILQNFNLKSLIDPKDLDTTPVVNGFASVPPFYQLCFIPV
# CYP 1A2, sequence (P05177 whole entry): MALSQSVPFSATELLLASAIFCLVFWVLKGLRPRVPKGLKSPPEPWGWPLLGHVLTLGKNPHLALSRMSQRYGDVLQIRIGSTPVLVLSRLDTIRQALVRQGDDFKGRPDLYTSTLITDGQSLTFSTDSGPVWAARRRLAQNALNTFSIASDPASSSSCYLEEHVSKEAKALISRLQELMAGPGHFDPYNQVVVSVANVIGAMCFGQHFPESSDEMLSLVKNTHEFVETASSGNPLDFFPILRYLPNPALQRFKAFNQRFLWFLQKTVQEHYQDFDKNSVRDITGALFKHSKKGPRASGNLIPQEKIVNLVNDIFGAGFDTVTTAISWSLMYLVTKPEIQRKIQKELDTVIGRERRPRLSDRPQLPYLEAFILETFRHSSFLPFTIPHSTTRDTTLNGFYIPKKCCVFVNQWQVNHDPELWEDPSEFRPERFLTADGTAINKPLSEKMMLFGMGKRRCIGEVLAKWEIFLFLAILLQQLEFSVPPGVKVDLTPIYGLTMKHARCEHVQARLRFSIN
# CYP 2D6, sequence (P10635 whole entry): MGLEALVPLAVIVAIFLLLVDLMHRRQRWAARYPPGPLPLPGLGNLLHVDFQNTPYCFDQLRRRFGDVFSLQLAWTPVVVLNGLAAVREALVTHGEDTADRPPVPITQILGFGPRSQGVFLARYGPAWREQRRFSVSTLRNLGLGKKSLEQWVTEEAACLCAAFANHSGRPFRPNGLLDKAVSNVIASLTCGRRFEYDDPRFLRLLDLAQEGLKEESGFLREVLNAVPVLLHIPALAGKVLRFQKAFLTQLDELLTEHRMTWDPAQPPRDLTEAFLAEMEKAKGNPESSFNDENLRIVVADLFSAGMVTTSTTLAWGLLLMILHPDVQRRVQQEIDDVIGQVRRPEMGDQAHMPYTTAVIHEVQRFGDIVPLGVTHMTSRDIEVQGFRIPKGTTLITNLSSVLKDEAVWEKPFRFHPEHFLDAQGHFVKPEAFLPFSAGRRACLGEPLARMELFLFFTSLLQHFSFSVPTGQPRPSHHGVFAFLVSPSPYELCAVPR
# CYP 2C9, sequence (P11712 whole entry): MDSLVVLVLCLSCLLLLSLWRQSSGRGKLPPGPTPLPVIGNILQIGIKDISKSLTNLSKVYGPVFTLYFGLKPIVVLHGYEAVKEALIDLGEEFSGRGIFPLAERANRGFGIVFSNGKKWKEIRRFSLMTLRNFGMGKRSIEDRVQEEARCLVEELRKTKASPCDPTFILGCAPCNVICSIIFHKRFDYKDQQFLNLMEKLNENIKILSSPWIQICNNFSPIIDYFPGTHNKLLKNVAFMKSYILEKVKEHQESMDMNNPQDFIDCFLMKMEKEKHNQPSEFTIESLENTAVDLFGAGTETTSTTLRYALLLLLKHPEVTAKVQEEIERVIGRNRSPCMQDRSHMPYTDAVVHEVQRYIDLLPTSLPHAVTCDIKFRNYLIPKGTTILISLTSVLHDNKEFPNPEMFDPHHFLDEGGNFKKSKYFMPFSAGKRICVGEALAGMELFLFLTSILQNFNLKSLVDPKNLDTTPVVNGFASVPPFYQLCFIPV
# CYP3A4, sequence (P08684 2-503 limits assumed): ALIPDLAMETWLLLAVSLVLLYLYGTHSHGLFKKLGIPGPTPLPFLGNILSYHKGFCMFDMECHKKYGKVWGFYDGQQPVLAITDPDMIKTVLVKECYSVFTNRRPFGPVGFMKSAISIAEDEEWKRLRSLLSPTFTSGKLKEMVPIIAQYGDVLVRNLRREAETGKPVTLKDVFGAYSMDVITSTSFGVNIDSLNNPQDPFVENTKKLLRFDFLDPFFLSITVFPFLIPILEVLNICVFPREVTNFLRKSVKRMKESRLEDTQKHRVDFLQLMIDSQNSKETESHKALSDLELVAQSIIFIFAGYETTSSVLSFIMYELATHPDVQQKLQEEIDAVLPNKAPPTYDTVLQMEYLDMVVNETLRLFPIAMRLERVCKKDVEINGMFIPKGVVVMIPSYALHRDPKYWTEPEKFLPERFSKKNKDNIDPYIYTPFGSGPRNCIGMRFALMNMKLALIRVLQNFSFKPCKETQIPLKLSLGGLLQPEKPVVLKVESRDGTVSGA
structure (smiles),measurement,setting,value
CC(Nc1ncc(C(=O)N2CCC3(CCOCC3)C2)cn1)c1ccccc1 (stereo not shown) [Compound 6],IC50,[1],0.0016 µM
O=C(c1cnc(NCc2ccc(F)cc2F)nc1)N1CCC2(CCOCC2)C1 [Compound 12],IC50,[1],0.0079 µM
CC(=O)N(C)[C@H]1CCN(C(=O)c2cnc(N[C@H](C)c3ccc(C(F)(F)F)cc3F)nc2)C1 [Compound 41-P2],IC50,[2],> 50 µM
same,IC50,[3],45.6 µM
same,IC50,[4],> 50 µM
same,IC50,[5],> 50 µM
same,half-life at 1 μM,[6],> 4.66 h
same,half-life at 1 μM,[7],1.65 h
same,half-life at 1 μM,[8],3.31 h
same,Area under the curve AUC0-7 h,"[9]; intragastric administration, 5 mpk",10656.5 ng·h/mL
same,AUC(0-t),[9]; [13],4960 ng·h/mL
same,clearance,"[9]; mouse, plasma, 2 mg/kg, intravenous injection, 2 mpk, read-out: Clearance rate CL (converted)",0.112
same,Vd,"[9]; mouse, plasma, 2 mg/kg, intravenous injection, 2 mpk, read-out: Distributed solvent Vd",1.26 L/kg
same,half-life,[9]; [13],2.8 h
same,Cmax,[9]; [13],2140 ng/mL
same,bioavailability,"[9]; mouse, plasma, oral, intragastric administration 5 mpk vs intravenous 2 mpk, read-out: Bioavailability F %",86%
same,AUC(0-t),[9]; [14],10700 ng·h/mL
same,half-life,[9]; [14],5.6 h
same,Cmax,[9]; [14],1540 ng/mL
same,inhibitory effect on the tested CYP enzymes,[10],basically no inhibitory effect
same,liver microsome stability,[11],remarkable stability
same,IC50 at 10 min,[12],> 50 µM
